Test results from patent US20050065436A1, “Rapid and non-invasive optical detection of internal bleeding” (priority 2003, published 2005).

Assay: NIR absorption and fluorescence spectra of indocyanine green
Format: physicochemical
Text: Many NIR fluorescence compounds are potential candidates for the present application. One of examples, indocyanine green (ICG), because of its low toxicity, has been used in many clinical applications. Indocyanine green, molecular weight 775, is a tricarbocyanine type of green dye. FIG. 2 and FIG. 3 show the NIR absorption, 650-850 nm, and NIR fluorescence spectra, 650-900 nm, of ICG, respectively. ICG has little absorption in the visible light. However, it is easily excited by an NIR light source with high quantum efficiency. Diode laser light sources with a wavelength between […] is suitable for ICG excitation. The fluorescent peak has a large red shifted relatively to the excitation wavelength. The fluorescence peak at 810 nm is within the NIR window for tissue optics. Due to ICG has a very large fluorescent quantum yield and a distinct peak at 810 nm, a sensitivity of 0.5 μg/ml can be achieved easily. FIG. 3(a), (b), and (c) show the fluorescence spectra of ICG in blood samples with various concentration between 0.5-500 μg/ml

Which results are given for `CC1(C)C(/C=C/C=C/C=C/C=C2\N(CCCCS(=O)(=O)O)c3ccc4ccccc4c3C2(C)C)=[N+](CCCCS(=O)(=O)[O-])c2ccc3ccccc3c21` [ICG, Indocyanine green]?
NIR fluorescence spectra (FIG. 3): 650-900 nm; fluorescence peak (FIG. 3, concentrations 0.5-500 μg/ml): 810 nm; NIR absorption (absorption spectrum, FIG. 2): 650-850 nm
